Assay results as given in US10335398B2 (MAXINASE LIFE SCIENCES LIMITED, priority 2015, dated 2019).

Columns and labels:
[1] = Pharmacokinetic study on Bioadhesive Composition in Beagle dogs; conditions: for half-life: t1/2, Beagle dogs;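 as to all read-outs here: eight Beagle dogs (4 male, 4 female), five-period crossover with 3-day washouts, plasma levels quantified by validated LC-MS/MS, oral dosing after roughly 16 h fast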
Protocol: (§1) Eight Beagle dogs (4 male and 4 female) participated in the study. The study was preceded in five cross-over periods, separated by 3-day washout period. For oral administration, dogs were fasted about 16 hours prior to the dosing but had free access to water. […] Each oral dosing was administered with 20-30 mL of water. […] Blood samples were collected at pre-dose (0 min) and at 5, 10, 15, 30, 45 minutes; and at 1, 2, 3, 4, 6, 8, 12, 24 hours post-dose. After the plasma-separation process, the samples were analyzed by a validated LC-MS/MS method.

in vivo = conditions: both, beagle, dog, plasma, 1 mg
Protocol: as §1

[2] = Beagle dogs, analyte 7-OH Granisetron, IV Kytril® IV Infusion 1 mg
[3] = Beagle dogs, analyte 7-OH Granisetron, nasal GNS-B01 0.5 mg
[4] = Beagle dogs, analyte 7-OH Granisetron, nasal GNS-B01 1.0 mg
[5] = Beagle dogs, analyte 7-OH Granisetron, nasal GNS-B01 2 mg
[6] = Beagle dogs, analyte 7-OH Granisetron, oral Kytril® tablet 1 mg

CN1[C@@H]2CCC[C@H]1C[C@@H](NC(=O)c1nn(C)c3ccccc13)C2 [Granisetron, 1-methyl-N-((1R,3r,5S)-9-methyl-9-azabicyclo[3.3.1]nonan-3-yl)-1H-indazole-3-carboxamide, reference compound]
CL/F ([1]; Beagle dogs, analyte Granisetron, nasal GNS-B01 0.5 mg/dog): 4.20 ± 4.35 L/min | CL/F ([1]; Beagle dogs, analyte Granisetron, nasal GNS-B01 1.0 mg/dog): 4.26 ± 3.69 L/min | CL/F ([1]; Beagle dogs, analyte Granisetron, nasal GNS-B01 2 mg/dog): 2.80 ± 2.18 L/min | Tmax ([1]; both, beagle, dog, plasma, inhaled or intranasal, 0.5 mg, Tmax, Beagle dogs, analyte Granisetron, nasal GNS-B01 0.5 mg/dog): 0.448 h | half-life ([1]; both, beagle, dog, plasma, inhaled or intranasal, 0.5 mg, analyte Granisetron, nasal GNS-B01 0.5 mg/dog): 0.997 ± 0.245 h | Tmax ([1]; both, beagle, dog, plasma, inhaled or intranasal, 1 mg, Tmax (range), Beagle dogs, intranasal administration 1.0 mg/dog): 0.25 to 0.75 h | Tmax ([1]; both, beagle, dog, plasma, inhaled or intranasal, 1 mg, Tmax, Beagle dogs, analyte Granisetron, nasal GNS-B01 1.0 mg/dog): 0.438 h | half-life ([1]; both, beagle, dog, plasma, inhaled or intranasal, 1 mg, analyte Granisetron, nasal GNS-B01 1.0 mg/dog): ~1 h | Tmax ([1]; both, beagle, dog, plasma, inhaled or intranasal, 2 mg, Tmax, Beagle dogs, analyte Granisetron, nasal GNS-B01 2 mg/dog): 0.397 h | half-life ([1]; both, beagle, dog, plasma, inhaled or intranasal, 2 mg, analyte Granisetron, nasal GNS-B01 2 mg/dog): 1.3 ± 0.352 h | Tmax ([1]; both, beagle, dog, plasma, po, 1 mg, Tmax (range), Beagle dogs, oral administration 1.0 mg/dog): 0.5 to 1 h | AUC(0-t) (in vivo; iv): 28.4 ng·h/mL | MRT (in vivo; iv): 1.24 h | half-life (in vivo; iv): 1.1 ± 0.178 h | MRT (in vivo; po): 1.5 h | Vd/F (in vivo; po): 531 ± 234 L | half-life (in vivo; po): ~1 h

CN1[C@@H]2CCC[C@H]1C[C@H](NC(=O)c1nn(C)c3c(O)cccc13)C2 [7-OH Granisetron]
amount of 7-OH Granisetron in plasma after oral dosing compared to intranasal administration ([1]; Beagle dogs): about twice as much | AUC0-last [1, 2]: 1389 ± 465 ng·min/mL | AUC0-∞ [1, 2]: 1419 ± 470 ng·min/mL | CL/F [1, 2]: 0.77 ± 0.25 L/min | Cmax [1, 2]: 4.28 ± 1.20 ng/mL | MRT [1, 2]: 4.95 ± 0.317 h | Tmax [1, 2]: 0.813 ± 0.222 h | t1/2 [1, 2]: 4.6 ± 0.0033 h | AUC0-last [1, 3]: 364 ± 263 ng·min/mL | AUC0-∞ [1, 3]: 386 ± 264 ng·min/mL | CL/F [1, 3]: 2.98 ± 4.01 L/min | MRT [1, 3]: 3.92 ± 0.817 h | Tmax [1, 3]: 1 ± 0.423 h | t1/2 [1, 3]: 3.88 ± 1.2 h | AUC0-last [1, 4]: 664 ± 520 ng·min/mL | AUC0-∞ [1, 4]: 691 ± 520 ng·min/mL | CL/F [1, 4]: 2.70 ± 2.36 L/min | Cmax [1, 4]: 2.18 ± 1.54 ng/mL | MRT [1, 4]: 4.42 ± 0.8 h | Tmax [1, 4]: 1.06 ± 0.395 h | t1/2 [1, 4]: 4.37 ± 0.783 h | AUC0-last [1, 5]: 1549 ± 771 ng·min/mL | AUC0-∞ [1, 5]: 1609 ± 810 ng·min/mL | CL/F [1, 5]: 1.50 ± 0.61 L/min | Cmax [1, 5]: 4.56 ± 2.01 ng/mL | MRT [1, 5]: 5.42 ± 0.35 h | Tmax [1, 5]: 1.09 ± 0.597 h | t1/2 [1, 5]: 5.1 ± 0.55 h | AUC0-last [1, 6]: 1197 ± 446 ng·min/mL | AUC0-∞ [1, 6]: 1246 ± 473 ng·min/mL | CL/F [1, 6]: 0.90 ± 0.32 L/min | Cmax [1, 6]: 5.73 ± 2.17 ng/mL | MRT [1, 6]: 4.5 ± 0.683 h | Tmax [1, 6]: 0.625 ± 0.267 h | t1/2 [1, 6]: 4.58 ± 1.02 h | Cmax ([1]; Beagle dogs, analyte metabolite 7-OH Granisetron, nasal GNS-B01 0.5 mg granisetron): 1.26 ± 0.845 ng/mL
